“And” between values parts separate entries of the source, which are not always exact repeats. Equal entries are not always repeated. Inconclusive results and toxic doses are left out. The calls were made as follows: active = survival T/C of 150% or more; inactive = T/C below 125% in these data.
System: P388 leukemia ip, CD2F1 mice, survival T/C
Experiment: NCI In Vivo Anticancer Drug Screen. Data for tumor model P388 Leukemia (intraperitoneal) in CD2F1 (CDF1) mice
Conditions: endpoint: median survival time, higher = longer survival
How it was run: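 Mice carrying the transplanted tumor received test compound or vehicle. Survival was recorded in each group, and the value is the treated-group measurement divided by that of the vehicle-treated control group.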

[1] = dose: 60.0 mg/kg/injection, schedule: Q01DX005 (ip), vehicle: saline with Tween-80
[2] = dose: 120.0 mg/kg/injection, schedule: Q01DX005 (ip), vehicle: saline with Tween-80
[3] = dose: 50.0 mg/kg/injection, schedule: Q01DX009 (ip), vehicle: saline with Tween-80
[4] = dose: 100.0 mg/kg/injection, schedule: Q01DX009 (ip), vehicle: saline with Tween-80
[5] = dose: 200.0 mg/kg/injection, schedule: Q01DX009 (ip), vehicle: saline with Tween-80
[6] = dose: 50.0 mg/kg/injection, schedule: Q01DX005 (ip), vehicle: Klucel (hydroxypropylcellulose) (HPC)
[7] = dose: 100.0 mg/kg/injection, schedule: Q01DX005 (ip), vehicle: Klucel (hydroxypropylcellulose) (HPC)
[8] = dose: 200.0 mg/kg/injection, schedule: Q01DX005 (ip), vehicle: Klucel (hydroxypropylcellulose) (HPC)
[9] = dose: 4.88 mg/kg/injection, schedule: Q01DX005 (ip), vehicle: Klucel (hydroxypropylcellulose) (HPC)
[10] = dose: 9.75 mg/kg/injection, schedule: Q01DX005 (ip), vehicle: Klucel (hydroxypropylcellulose) (HPC)
[11] = dose: 39.0 mg/kg/injection, schedule: Q01DX005 (ip), vehicle: Klucel (hydroxypropylcellulose) (HPC)
[12] = dose: 50.0 mg/kg/injection, schedule: Q01DX005 (ip), vehicle: saline with Tween-80
[13] = dose: 50.0 mg/kg/injection, schedule: Q01DX009 (ip), vehicle: Klucel (hydroxypropylcellulose) (HPC)
[14] = dose: 100.0 mg/kg/injection, schedule: Q01DX009 (ip), vehicle: Klucel (hydroxypropylcellulose) (HPC)
[15] = dose: 200.0 mg/kg/injection, schedule: Q01DX009 (ip), vehicle: Klucel (hydroxypropylcellulose) (HPC)

Measured: T/C

CN(C)CCSc1nc2ccccc2o1
inactive: dose: 60.0 mg/kg/injection, schedule: Q01DX005 (ip), vehicle: saline 105 % of control | dose: 120.0 mg/kg/injection, schedule: Q01DX005 (ip), vehicle: saline 104 % of control

COc1ccc2oc3cc(Cl)ccc3c(=O)c2c1
inactive: [1] 118 % of control | [2] 101 % of control | dose: 240.0 mg/kg/injection, schedule: Q01DX005 (ip), vehicle: saline with Tween-80 100 % of control

CCN(CC)C(=O)C1(C)NS(=O)(=O)c2ccccc2C1=O (stereo not drawn)
inactive: dose: 25.0 mg/kg/injection, schedule: Q01DX009 (ip), vehicle: saline with Tween-80 106 % of control | [3] 98 % of control and 110 % of control and 96 % of control | [4] 98 % of control and 110 % of control and 97 % of control | [5] 95 % of control

N=C(N)SCC(=O)n1ccc(=O)n(C(=O)CSC(=N)N)c1=O
inactive: dose: 100.0 mg/kg/injection, schedule: Q04DX002 (ip), vehicle: saline 100 % of control | dose: 200.0 mg/kg/injection, schedule: Q04DX002 (ip), vehicle: saline 100 % of control | dose: 400.0 mg/kg/injection, schedule: Q04DX002 (ip), vehicle: saline 96 % of control

COc1ccccc1[B-]12OCC[N+]1(CNC(=O)C1=C(O)C3(O)C(=O)C4=C(O)c5c(O)cccc5C(C)(O)C4CC3C(N(C)C)C1=O)CCO2 (stereo not drawn)
inactive: [6] 105 % of control | [7] 108 % of control | [8] 112 % of control

O=C(Nc1ccc(N=C(NC2CCCCC2)c2ccccc2)cc1)c1ccc(C(=O)Nc2ccc(N=C(NC3CCCCC3)c3ccccc3)cc2)cc1
inactive: dose: 12.5 mg/kg/injection, schedule: Q01DX005 (ip), vehicle: Klucel (hydroxypropylcellulose) (HPC) 104 % of control | dose: 25.0 mg/kg/injection, schedule: Q01DX005 (ip), vehicle: Klucel (hydroxypropylcellulose) (HPC) 103 % of control | [6] 104 % of control and 111 % of control | [7] 91 % of control | [8] 106 % of control

CCN(CC)c1ccc2cc(C(=O)NC(=O)Oc3ccccc3)c(=O)oc2c1
inactive: dose: 100.0 mg/kg/injection, schedule: Q04DX002 (ip), vehicle: saline with Tween-80 92 % of control | dose: 200.0 mg/kg/injection, schedule: Q04DX002 (ip), vehicle: saline with Tween-80 89 % of control | dose: 400.0 mg/kg/injection, schedule: Q04DX002 (ip), vehicle: saline with Tween-80 87 % of control

O=C(O)c1ccc2c(c1Sc1ccccc1)C(=O)c1ccccc1C2=O
inactive: dose: 60.0 mg/kg/injection, schedule: Q01DX005 (ip), vehicle: Klucel (hydroxypropylcellulose) (HPC) 110 % of control | dose: 120.0 mg/kg/injection, schedule: Q01DX005 (ip), vehicle: Klucel (hydroxypropylcellulose) (HPC) 107 % of control

Cc1ccc(NC(=O)/C=C2\CONC(c3ccccc3)=N2)cc1
inactive: [1] 91 % of control | [2] 91 % of control

C=C(Cl)CNc1ccccc1C(=O)OC
inactive: dose: 25.0 mg/kg/injection, schedule: Q04DX003 (ip), vehicle: Klucel (hydroxypropylcellulose) (HPC) 100 % of control | dose: 50.0 mg/kg/injection, schedule: Q04DX003 (ip), vehicle: Klucel (hydroxypropylcellulose) (HPC) 100 % of control and 103 % of control | dose: 100.0 mg/kg/injection, schedule: Q04DX003 (ip), vehicle: Klucel (hydroxypropylcellulose) (HPC) 100 % of control and 110 % of control | dose: 200.0 mg/kg/injection, schedule: Q04DX003 (ip), vehicle: Klucel (hydroxypropylcellulose) (HPC) 103 % of control and 106 % of control | dose: 400.0 mg/kg/injection, schedule: Q04DX003 (ip), vehicle: Klucel (hydroxypropylcellulose) (HPC) 100 % of control and 108 % of control

CC1OCC(Br)([N+](=O)[O-])CO1 (stereo not drawn)
inactive: dose: 3.12 mg/kg/injection, schedule: Q01DX009 (ip), vehicle: saline with Tween-80 104 % of control and 110 % of control | dose: 6.25 mg/kg/injection, schedule: Q01DX009 (ip), vehicle: saline with Tween-80 108 % of control and 112 % of control | dose: 12.5 mg/kg/injection, schedule: Q01DX009 (ip), vehicle: saline with Tween-80 100 % of control and 103 % of control and 113 % of control

CCc1c2c(c(C)n1C)C(c1ccccc1)=NCC(=O)N2
inactive: [3] 91 % of control | [4] 98 % of control | [5] 98 % of control

C=C1[C@H]2C[C@H]2[C@]2(C)C[C@@H]3OC(=O)C(C)=C3C[C@@H]12
inactive: [9] 89 % of control | [10] 94 % of control | [11] 94 % of control | dose: 78.0 mg/kg/injection, schedule: Q01DX005 (ip), vehicle: Klucel (hydroxypropylcellulose) (HPC) 94 % of control

CC(=O)OC1CCC2C3CCC4=C/C(=N/NC(=S)Nc5ccccc5)CCC4(C)C3CCC12C (stereo not drawn)
inactive: dose: 100.0 mg/kg/injection, schedule: Q01DX001 (ip), vehicle: saline 101 % of control | dose: 200.0 mg/kg/injection, schedule: Q01DX001 (ip), vehicle: saline 101 % of control | dose: 400.0 mg/kg/injection, schedule: Q01DX001 (ip), vehicle: saline 100 % of control

COc1ccccc1N/N=c1/c2n(-c3ccc(Cl)cc3)c(=S)n(-c3ccccn3)c1=NCCN=2
inactive: dose: 12.5 mg/kg/injection, schedule: Q01DX005 (ip), vehicle: saline with Tween-80 97 % of control | dose: 25.0 mg/kg/injection, schedule: Q01DX005 (ip), vehicle: saline with Tween-80 100 % of control | [12] 102 % of control and 94 % of control

CC(C)c1cc(O)c2c(c1O)C1CC3C(C)(C)CCC[C@]23C(=O)O1 (stereo partly drawn)
inactive: [9] 95 % of control | [10] 100 % of control | dose: 19.5 mg/kg/injection, schedule: Q01DX005 (ip), vehicle: Klucel (hydroxypropylcellulose) (HPC) 100 % of control | [11] 96 % of control

Cc1onc(-c2ccccc2Cl)c1C1=N/C(=C/c2cc(Cl)cc(Cl)c2O)C(=O)O1
inactive: [13] 114 % of control | [14] 104 % of control | [15] 96 % of control

CC(CC1(c2ccccc2)C(=O)NC(=O)NC1=O)OC(=O)c1ccc([N+](=O)[O-])cc1 (stereo not drawn)
inactive: [13] 103 % of control | [14] 100 % of control | [15] 99 % of control

C=C(C)C(=NC(C)(C)C)Nc1cccc(Cl)c1
inactive: dose: 50.0 mg/kg/injection, schedule: Q01DX009 (ip), vehicle: saline 100 % of control | dose: 100.0 mg/kg/injection, schedule: Q01DX009 (ip), vehicle: saline 104 % of control | dose: 200.0 mg/kg/injection, schedule: Q01DX009 (ip), vehicle: saline 100 % of control

O=C(NCCCCCCCCNC(=O)C12CC3CC(CC(C3)C1)C2)C12CC3CC(CC(C3)C1)C2
inactive: [12] 86 % of control | dose: 100.0 mg/kg/injection, schedule: Q01DX005 (ip), vehicle: saline with Tween-80 86 % of control | dose: 200.0 mg/kg/injection, schedule: Q01DX005 (ip), vehicle: saline with Tween-80 96 % of control

CC(=O)[C@H]1CC[C@H]2[C@@H]3C[C@H](C)C4=CC(=O)CC[C@]4(C)[C@@]3(F)[C@@H](O)C[C@]12C
inactive: dose: 100.0 mg/kg/injection, schedule: Q04DX003 (ip), vehicle: saline with Tween-80 95 % of control | dose: 200.0 mg/kg/injection, schedule: Q04DX003 (ip), vehicle: saline with Tween-80 87 % of control | dose: 400.0 mg/kg/injection, schedule: Q04DX003 (ip), vehicle: saline with Tween-80 100 % of control

NC1=NCCCN1
inactive: dose: 3.0 mg/kg/injection, schedule: Q01DX009 (ip), vehicle: saline 95 % of control | dose: 6.0 mg/kg/injection, schedule: Q01DX009 (ip), vehicle: saline 104 % of control | dose: 12.0 mg/kg/injection, schedule: Q01DX009 (ip), vehicle: saline 90 % of control

COc1ccc2nc(NC(=O)Nc3ccc(Cc4ccc(NC(=O)Nc5nc6ccc(OC)cc6s5)cc4)cc3)sc2c1
inactive: [13] 100 % of control | [14] 94 % of control | [15] 99 % of control

Reference: PubChem BioAssay AID330 (DTP/NCI, 2004)
